Measured values from ChEMBL document CHEMBL1201862, “PubChem BioAssay data set” (2004).
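Dose response: 5 concentrations. Exposure: 48 h. Format: 96-well plates. Endpoint: linear interpolation; highest concentration if not reached. GI50: concentration for 50% inhibition of growth.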 Active and inactive are the calls of the source. Rule as the data show it: active = GI50 up to about 1.1 µM and inactive = higher.

Assays:
Test in all cases: inhibition of tumour cell growth, NCI panel, 48 h
KM12 = test system: KM12
CCRF-CEM = test system: CCRF-CEM
HL-60 = test system: HL-60
CAKI-1 = test system: CAKI-1
HT-29 = test system: HT-29
786-0 = test system: 786-0
HCC 2998 = test system: HCC 2998
MOLT-4 = test system: MOLT-4
OVCAR-4 = test system: OVCAR-4
LOX IMVI = test system: LOX IMVI
NCI-H23 = test system: NCI-H23
SF-268 = test system: SF-268
OVCAR-8 = test system: OVCAR-8
SF-295 = test system: SF-295
OVCAR-3 = test system: OVCAR-3
A498 = test system: A498

Measured: GI50

CC(=O)NNc1nc(C)c(C(=O)NNC(=O)C(=O)Nc2ccc(Cl)c([N+](=O)[O-])c2)s1
inactive: KM12 88.9 µM | CCRF-CEM 21.9 µM | HL-60 39 µM | CAKI-1 > 100 µM | HT-29 > 100 µM | 786-0 50 µM | HCC 2998 66.1 µM | MOLT-4 20 µM | OVCAR-4 34.4 µM | LOX IMVI 31.3 µM | NCI-H23 37.7 µM | SF-268 35.8 µM | OVCAR-8 54.8 µM | SF-295 74.8 µM | OVCAR-3 30.4 µM

CC(NC(=O)C(=O)N/N=C1\C[C@@H](c2ccccc2)Nc2ccccc21)c1ccccc1 (stereo partly drawn)
inactive: KM12 > 100 µM | HL-60 8.57 µM | CAKI-1 > 100 µM | HT-29 80.7 µM | 786-0 > 100 µM | HCC 2998 > 100 µM | OVCAR-4 29.3 µM | LOX IMVI > 100 µM | NCI-H23 > 100 µM | SF-268 94.6 µM | OVCAR-8 > 100 µM | SF-295 > 100 µM | OVCAR-3 > 100 µM

CNS(=O)(=O)NNS(=O)(=O)c1ccc(F)cc1
inactive: KM12 > 100 µM | CCRF-CEM > 100 µM | HL-60 > 100 µM | CAKI-1 > 100 µM | HT-29 > 100 µM | 786-0 > 100 µM | MOLT-4 > 100 µM | OVCAR-4 > 100 µM | LOX IMVI > 100 µM | NCI-H23 > 100 µM | A498 > 100 µM | SF-268 > 100 µM | OVCAR-8 > 100 µM | SF-295 > 100 µM | OVCAR-3 > 100 µM

Nc1nc(N)c(-c2ccccc2)c(C(=O)Nc2nccs2)n1
inactive: KM12 > 100 µM | CCRF-CEM > 100 µM | HL-60 > 100 µM | CAKI-1 > 100 µM | HT-29 > 100 µM | 786-0 > 100 µM | HCC 2998 > 100 µM | MOLT-4 > 100 µM | OVCAR-4 > 100 µM | LOX IMVI > 100 µM | NCI-H23 > 100 µM | SF-268 > 100 µM | OVCAR-8 > 100 µM | SF-295 > 100 µM | OVCAR-3 > 100 µM

Cc1ccc(Nc2nc(C)c(C(/C=C/c3ccc4c(c3)OCO4)=N/Nc3ccc([N+](=O)[O-])cc3[N+](=O)[O-])s2)c([N+](=O)[O-])c1
inactive: KM12 24 µM | CCRF-CEM 28.2 µM | HL-60 21.7 µM | CAKI-1 25.1 µM | HT-29 50.6 µM | 786-0 91.2 µM | HCC 2998 28.6 µM | MOLT-4 21.7 µM | OVCAR-4 56.6 µM | LOX IMVI 16.3 µM | NCI-H23 33.2 µM | SF-268 53.2 µM | OVCAR-8 70.3 µM | SF-295 65 µM | OVCAR-3 35.2 µM

Cc1ccc(S(=O)(=O)N/N=C(\C(=O)Nc2cccc([N+](=O)[O-])c2)c2nc3ccc([N+](=O)[O-])cc3nc2O)cc1
inactive: KM12 37.9 µM | CCRF-CEM 7.64 µM | CAKI-1 23.2 µM | HT-29 53 µM | 786-0 61.9 µM | HCC 2998 30.1 µM | MOLT-4 24 µM | OVCAR-4 > 100 µM | LOX IMVI 10.4 µM | NCI-H23 72.4 µM | A498 17.1 µM | SF-268 48.5 µM | OVCAR-8 54.2 µM | SF-295 29 µM | OVCAR-3 > 100 µM
